The record followed here is ChEMBL document CHEMBL1143804, “Synthesis and antibacterial evaluation of 1beta-methyl-2-[5-(1-methoxyimino-2-substituted sulfonamide ethyl)pyrrolidin-3-ylthio]carbapenems and their related compounds” (2007).

Test [1] relates to Escherichia coli. Description: Antibacterial activity against Escherichia coli TEM. It is filed as functional.
Test [2] has as its system Streptococcus pyogenes. Description: Antibacterial activity against Streptococcus pyogenes 308A. The class given is functional.
The subject of test [3] is Streptococcus pyogenes. Kind of test: Antibacterial activity against Streptococcus pyogenes 77A. It is filed as functional.
For test [4], the system named is Staphylococcus aureus. Kind of test: Antibacterial activity against Staphylococcus aureus SG511. It is filed as functional.
Test [5] deals with Staphylococcus aureus. Kind of test: Antibacterial activity against Staphylococcus aureus 285. It is filed as functional.
The test system of test [6] is Escherichia coli. Description: Antibacterial activity against Escherichia coli DC2. The class given is functional.
In test [7] the test system is Pseudomonas aeruginosa. Description: Antibacterial activity against Pseudomonas aeruginosa 9027. It is filed as functional.
Another test concerns Salmonella typhimurium. Description: Antibacterial activity against Salmonella Typhimurium. It is filed as functional, Salmonella enterica subsp. enterica serovar Typhimurium. As to conditions: Salmonella enterica.
In another test the test system is Klebsiella aerogenes. Description: Antibacterial activity against Klebsiella aerogenes 1522E. It is filed as functional.
Test [8] deals with Enterobacter cloacae. Description: Antibacterial activity against Enterobactor cloacae 1321E. The class given is functional.
The next test concerns Klebsiella pneumoniae. Description: Antibacterial activity against Klebsiella pneumonise 477. It is filed as functional.
Test [9] has as its system Enterobacter cloacae. Kind of test: Antibacterial activity against Enterobacter cloacae. The class given is functional.
Test [10] concerns Enterobacter cloacae. Kind of test: Antibacterial activity against Enterobacter cloacae 417. It is filed as functional.
Test [11] deals with Serratia marcescens. Kind of test: Antibacterial activity against Serratia marcescens 370. It is filed as functional.
Test [12] deals with Serratia marcescens. Description: Antibacterial activity against Serratia marcescens 6093. The class given is functional.
Test [13] relates to Serratia marcescens. Kind of test: Antibacterial activity against Serratia marcescens 14273. It is filed as functional.
In test [14] the test system is Proteus mirabilis. Kind of test: Antibacterial activity against Proteus mirabilis 112/3. The class given is functional.
The subject of test [15] is Proteus mirabilis. Kind of test: Antibacterial activity against Proteus mirabilis 174/3. The class given is functional.
Another test concerns Proteus vulgaris. Kind of test: Antibacterial activity against Proteus vulgaris 868. It is filed as functional.
For test [16], the system named is Providencia rettgeri. Kind of test: Antibacterial activity against Proteus rettgeri 936. It is filed as functional.
Test [17] has as its system Staphylococcus aureus. Kind of test: Antibacterial activity against Staphylococcus aureus giorgio. It is filed as functional.
The subject of test [18] is Staphylococcus aureus. Kind of test: Antibacterial activity against Staphylococcus aureus 209P. The class given is functional.
Test [19] has as its system Staphylococcus aureus. Kind of test: Antibacterial activity against Staphylococcus aureus 503. The class given is functional.
For another test, the system named is Micrococcus luteus. Kind of test: Antibacterial activity against Micrococcus luteus ATCC 9341. The class given is functional.
For a further test, the system named is Enterococcus faecium. Description: Antibacterial activity against Streptococcus faecium 77A. It is filed as functional.
The subject of another test is Streptococcus agalactiae. Description: Antibacterial activity against Streptococcus agalactiae B. The class given is functional.
The next test deals with Enterococcus durans. Description: Antibacterial activity against Streptococcus durans D. It is filed as functional.
Another test relates to Bacillus subtilis. Kind of test: Antibacterial activity against Bacillus subtilts ATCC 6633. The class given is functional.
For a further test, the system named is Priestia megaterium. Description: Antibacterial activity against Bacillus megaterium. The class given is functional.
Test [20] has as its system Pseudomonas aeruginosa. Description: Antibacterial activity against Pseudomonas aeruginosa 77/2. It is filed as functional.
In test [21] the test system is Pseudomonas aeruginosa. Kind of test: Antibacterial activity against Pseudomonas aeruginosa 110/2. It is filed as functional.
Test [22] has as its system Pseudomonas aeruginosa. Kind of test: Antibacterial activity against Pseudomonas aeruginosa 880/2. The class given is functional.
The next test deals with Burkholderia cepacia. Kind of test: Antibacterial activity against Pseudomonas cepacia. The class given is functional.
Test [23] has as its system Escherichia coli. Kind of test: Antibacterial activity against Escherichia coli 086. It is filed as functional.
The subject of test [24] is Escherichia coli. Kind of test: Antibacterial activity against Escherichia coli 0114. The class given is functional.
Test [25] concerns Escherichia coli. Description: Antibacterial activity against Escherichia coli 0126. It is filed as functional.
Test [26] concerns Escherichia coli. Description: Antibacterial activity against Escherichia coil V6311/65. It is filed as functional.
The test system of test [27] is Escherichia coli. Description: Antibacterial activity against Escherichia coil 1507. It is filed as functional.
Test [28] in a line: Antibacterial activity against Salmonella oranienberg. It is filed as functional, Salmonella enterica subsp. enterica serovar Oranienburg. As to conditions: Salmonella enterica.
In a further test the test system is Salmonella typhi. Description: Antibacterial activity against Salmonella typhi. It is filed as functional, Salmonella enterica subsp. enterica serovar Typhi. The following applies: Salmonella enterica.
Another test concerns Salmonella. Kind of test: Antibacterial activity against Salmonella orion. It is filed as functional.
Test [29] in a line: Antibacterial activity against Salmonella give. As to conditions: Salmonella enterica. It is filed as functional, Salmonella enterica subsp. enterica serovar Give.
In test [30] the test system is Providencia rettgeri. Kind of test: Antibacterial activity against Proteus rettgeri 937. The class given is functional.
The test system of another test is Pasteurella multocida. Kind of test: Antibacterial activity against Pasteurella multocida. The class given is functional.
In test [31] the test system is Corynebacterium diphtheriae. Kind of test: Antibacterial activity against Corynebacterium diphtheriae. It is filed as functional.
For another test, the system named is Trueperella pyogenes. Description: Antibacterial activity against Corynebacterium pyogenes. It is filed as functional.

In brackets after ≈: the same amount, converted by molar mass. A value given as a limit tells only on which side of the number the result lay.

One may read the MIC as the least concentration at which growth counts as inhibited. Low values mean greater potency, high ones weaker potency. In the case of `CCS(=O)(=O)NC/C(=N\OC)[C@@H]1C[C@H](SC2=C(C(=O)O)N3C(=O)[C@H]([C@@H](C)O)[C@H]3[C@H]2C)CN1`, the MIC in the test with Escherichia coli [1] worked out at 0.195 mg/L (≈ 0.397 µM); in the test with Streptococcus pyogenes [2], 0.195 mg/L (≈ 0.397 µM); against Streptococcus pyogenes [3], 0.098 mg/L (≈ 0.2 µM); in the test with Staphylococcus aureus [4] it was 0.195 mg/L (≈ 0.397 µM); against Staphylococcus aureus [5], 0.781 mg/L (≈ 1.59 µM); against Escherichia coli [6], 0.391 mg/L (≈ 0.797 µM). Besides, the MIC was 12.5 mg/L (≈ 25.5 µM) in the test on Pseudomonas aeruginosa [7], 1.56 mg/L (≈ 3.18 µM) in the test on Salmonella typhimurium, 0.781 mg/L (≈ 1.59 µM) against Klebsiella aerogenes and 0.781 mg/L (≈ 1.59 µM) against Enterobacter cloacae [8].
As to `CO/N=C(\CNC(N)=O)[C@@H]1C[C@H](SC2=C(C(=O)O)N3C(=O)[C@H]([C@@H](C)O)[C@H]3[C@H]2C)CN1`, the MIC against Escherichia coli [1] is 0.049 mg/L (≈ 0.111 µM); in the test with Streptococcus pyogenes [2] it was below 0.01 mg/L; against Streptococcus pyogenes [3], 0.013 mg/L (≈ 0.0294 µM); against Staphylococcus aureus [4] it was 0.098 mg/L (≈ 0.222 µM); in the test with Staphylococcus aureus [5], 0.195 mg/L (≈ 0.442 µM); against Escherichia coli [6], 0.049 mg/L (≈ 0.111 µM). Further, the MIC worked out at 1.56 mg/L (≈ 3.53 µM) in the test with Pseudomonas aeruginosa [7], 0.098 mg/L (≈ 0.222 µM) in the test on Salmonella typhimurium, 0.195 mg/L (≈ 0.442 µM) against Klebsiella aerogenes and 0.049 mg/L (≈ 0.111 µM) against Enterobacter cloacae [8].
On to `C[C@@H](O)[C@H]1C(=O)N2C(C(=O)O)=C(S[C@@H]3CN[C@H](C(=O)N(C)C)C3)[C@H](C)[C@H]12` [MEROPENEM], for which the MIC worked out at 0.05 mg/L (≈ 0.13 µM) against Klebsiella pneumoniae; 0.03 mg/L (≈ 0.0782 µM) against Enterobacter cloacae [9]; 0.01 mg/L (≈ 0.0261 µM) with Enterobacter cloacae [10]; 0.05 mg/L (≈ 0.13 µM) with Serratia marcescens [11]; 0.05 mg/L (≈ 0.13 µM) in the test on Serratia marcescens [12]; 0.2 mg/L (≈ 0.522 µM) against Serratia marcescens [13]. The MIC is 0.1 mg/L (≈ 0.261 µM) in the test with Proteus mirabilis [14]; 0.1 mg/L (≈ 0.261 µM) against Proteus mirabilis [15]; 0.1 mg/L (≈ 0.261 µM) against Proteus vulgaris; 0.1 mg/L (≈ 0.261 µM) against Providencia rettgeri [16]; 0.025 mg/L (≈ 0.0652 µM) with Escherichia coli [1]; 0.013 mg/L (≈ 0.0339 µM) with Streptococcus pyogenes [2]. Besides, the MIC was below 0.01 mg/L in the test with Streptococcus pyogenes [3]; 0.098 mg/L (≈ 0.256 µM) in the test with Staphylococcus aureus [4]; 0.098 mg/L (≈ 0.256 µM) against Staphylococcus aureus [5]; 0.025 mg/L (≈ 0.0652 µM) in the test on Escherichia coli [6]; 0.195 mg/L (≈ 0.509 µM) in the test on Pseudomonas aeruginosa [7]; 0.025 mg/L (≈ 0.0652 µM) against Salmonella typhimurium. For the same compound, the MIC with Klebsiella aerogenes worked out at 0.049 mg/L (≈ 0.128 µM); in the test with Enterobacter cloacae [8] it was 0.025 mg/L (≈ 0.0652 µM); with Staphylococcus aureus [17] it was 0.1 mg/L (≈ 0.261 µM); in the test with Staphylococcus aureus [18], 0.1 mg/L (≈ 0.261 µM); against Staphylococcus aureus [19] it was 0.05 mg/L (≈ 0.13 µM); against Micrococcus luteus, 0.05 mg/L (≈ 0.13 µM). The MIC against Enterococcus faecium is 0.01 mg/L (≈ 0.0261 µM); with Streptococcus agalactiae, 0.05 mg/L (≈ 0.13 µM); in the test with Enterococcus durans it was 0.8 mg/L (≈ 2.09 µM); in the test on Bacillus subtilis it was 0.05 mg/L (≈ 0.13 µM); in the test on Priestia megaterium, 0.05 mg/L (≈ 0.13 µM); in the test with Pseudomonas aeruginosa [20], 0.8 mg/L (≈ 2.09 µM). The MIC in the test on Pseudomonas aeruginosa [21] was found to be 0.4 mg/L (≈ 1.04 µM); against Pseudomonas aeruginosa [22], 0.2 mg/L (≈ 0.522 µM); against Burkholderia cepacia, 0.4 mg/L (≈ 1.04 µM); in the test with Escherichia coli [23], 0.05 mg/L (≈ 0.13 µM); against Escherichia coli [24] it was 0.03 mg/L (≈ 0.0782 µM); with Escherichia coli [25], 0.05 mg/L (≈ 0.13 µM). In addition, the MIC against Escherichia coli [26] was determined as 0.01 mg/L (≈ 0.0261 µM); with Escherichia coli [27], 0.03 mg/L (≈ 0.0782 µM); in test [28], 0.05 mg/L (≈ 0.13 µM); against Salmonella typhi, 0.01 mg/L (≈ 0.0261 µM); in the test on Salmonella, 0.1 mg/L (≈ 0.261 µM); in [29], 0.03 mg/L (≈ 0.0782 µM). Also, the MIC in the test with Providencia rettgeri [30] worked out at 0.05 mg/L (≈ 0.13 µM); in the test with Pasteurella multocida, 0.05 mg/L (≈ 0.13 µM); in test [31] it was 0.05 mg/L (≈ 0.13 µM); against Trueperella pyogenes it was 0.03 mg/L (≈ 0.0782 µM).
For `CO/N=C(\CNS(C)(=O)=O)[C@@H]1C[C@H](SC2=C(C(=O)O)N3C(=O)[C@H]([C@@H](C)O)[C@H]3[C@H]2C)CN1`, the MIC was determined as 0.195 mg/L (≈ 0.409 µM) against Escherichia coli [1]; 0.098 mg/L (≈ 0.206 µM) with Streptococcus pyogenes [2]; 0.098 mg/L (≈ 0.206 µM) with Streptococcus pyogenes [3]; 0.195 mg/L (≈ 0.409 µM) against Staphylococcus aureus [4]; 0.391 mg/L (≈ 0.82 µM) against Staphylococcus aureus [5]; 0.195 mg/L (≈ 0.409 µM) with Escherichia coli [6]. Besides, the MIC with Pseudomonas aeruginosa [7] worked out at 12.5 mg/L (≈ 26.2 µM); in the test with Salmonella typhimurium it was 0.781 mg/L (≈ 1.64 µM); with Klebsiella aerogenes, 0.781 mg/L (≈ 1.64 µM); against Enterobacter cloacae [8], 0.391 mg/L (≈ 0.82 µM).
`CO/N=C(\CN)[C@@H]1C[C@H](SC2=C(C(=O)O)N3C(=O)[C@H]([C@@H](C)O)[C@H]3[C@H]2C)CN1`: the minimal inhibitory concentration (MIC) was 0.195 mg/L (≈ 0.489 µM) with Escherichia coli [1]; below 0.01 mg/L in the test with Streptococcus pyogenes [2]; below 0.01 mg/L with Streptococcus pyogenes [3]; 0.098 mg/L (≈ 0.246 µM) against Staphylococcus aureus [4]; 0.195 mg/L (≈ 0.489 µM) with Staphylococcus aureus [5]; 0.049 mg/L (≈ 0.123 µM) against Escherichia coli [6]. For the same compound, the MIC against Pseudomonas aeruginosa [7] is 3.12 mg/L (≈ 7.83 µM); in the test with Salmonella typhimurium, 0.098 mg/L (≈ 0.246 µM); against Klebsiella aerogenes, 0.195 mg/L (≈ 0.489 µM); against Enterobacter cloacae [8], 0.098 mg/L (≈ 0.246 µM).
